Legend:
[1] = tested on: BALB/cJ mice; assay: Delivery of hEPO mRNA by intramuscular administration of LNPs; serum hEPO by ELISA; type: in vivo, Mouse; settings: for hEPO 24 Hr (ng/ml) Mean: mouse serum 24 hours post single IM injection of 0.1 μg hEPO mRNA LNP
Summary of the method: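 Female BALB/cJ mice, 6-8 weeks, given a single IM injection of 0.1 μg hEPO mRNA LNPs into right gastrocnemius under light isoflurane. Serum taken at 6 and 24 h post dose and terminally by cardiac puncture; hEPO measured by ELISA ("shaker" protocol), samples diluted 1:40 to 1:100.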

[2] = tested on: A/Tasmania/503/2020 (H3N2) virus; assay: Influenza titer: HAI assay on sera of mice immunized IM with Modified Tasmania H3 mRNA-lipid nanoparticles; settings: Balb/c mice, 0.4 ug per mouse Modified Tasmania H3 mRNA-LNP IM on day 0 and day 21
[3] = Lipid nanoparticle size and polydispersity index by dynamic light scattering (Malvern Zetasizer); type: physicochemical; settings: hEPO mRNA LNP, Process A, Cationic Lipid:DMG-PEG2000:Cholesterol:DOPE 40:1.5:28.5:30 mol %, N/P 4
From the text: The lipid nanoparticles in the examples of the present invention were formulated using Process A of WO 2018/089801 (see, e.g., Example 1 and FIG. 1 of WO 2018/089801). Process A (“A”) relates to a conventional method of encapsulating mRNA by mixing mRNA with a mixture of lipids, without first pre-forming the lipids into lipid nanoparticles. In an exemplary process, an ethanolic solution of a mixture of lipids (cationic lipid, phosphatidylethanolamine, cholesterol, and polyethylene glycol-lipid) at a fixed lipid to mRNA ratio were combined with an aqueous buffered solution of target mRNA at an acidic pH under controlled conditions to yield a suspension of uniform LNPs. After ultrafiltration and diafiltration into a suitable diluent system, the resulting nanoparticle suspensions were diluted to final concentration, filtered, and stored frozen at −80° C. until use.
(§1) Lipid nanoparticle formulations of Table 1 were prepared by Process A. All of the lipid nanoparticle formulations comprised hEPO mRNA and the different lipids (Cationic Lipid: DMG-PEG2000: Cholesterol: DOPE) in mol % ratios of 40:1.5:28.5:30 (Cationic Lipid: DMG-PEG2000: Cholesterol: DOPE).
The Polydispersity Index (Pdl) of lipid nanoparticles can be determined by diluting the formulation in 10% trehalose at about 0.1 mg/ml mRNA concentration and then measuring the size on Malvern zetasizer. The lipid nanoparticle size can be obtained with Malvern Zetasizer Nano-ZS.
Dynamic light scattering (DLS) measurements were performed using a Malvern Instruments Zetasizer with a backscattering detector angle of 173° and a 4-mW, 633-nm He—Ne laser (Worcestershire, UK). The samples were analyzed by diluting in 10% Trehalose and measuring the size and Poly dispersity Index (PDI) in an optical grade polystyrene cuvette.

[4] = mRNA encapsulation efficiency of lipid nanoparticles (RiboGreen assay); type: physicochemical; settings: hEPO mRNA LNP, Process A, Cationic Lipid:DMG-PEG2000:Cholesterol:DOPE 40:1.5:28.5:30 mol %, N/P 4
From the text: In embodiments, the lipid nanoparticle encapsulates a nucleic acid, optionally an mRNA encoding a peptide or protein. In embodiments, the lipid nanoparticle encapsulates an mRNA encoding a peptide or protein, optionally for use in a vaccine. In embodiments, the peptide is an antigen. As used herein, the phrase “encapsulation percentage” refers to the fraction of therapeutic agent (e.g. mRNA) that is effectively encapsulated within a liposomal-based vehicle (e.g. a lipid nanoparticle) relative to the initial fraction of therapeutic agent present in the lipid phase. In embodiments, the lipid nanoparticles have an encapsulation percentage for mRNA of at least 50%. In embodiments, the lipid nanoparticles have an encapsulation percentage for mRNA of at least 55%. In embodiments, the lipid nanoparticles have an encapsulation percentage for mRNA of at least 60%. In embodiments, the lipid nanoparticles have an encapsulation percentage for mRNA of at least 65%. In embodiments, the lipid nanoparticles have an encapsulation percentage for mRNA of at least 70%. In embodiments, the lipid nanoparticles have an encapsulation percentage for mRNA of at least 75%. In embodiments, the lipid nanoparticles have an encapsulation percentage for mRNA of at least 80%. In embodiments, the lipid nanoparticles have an encapsulation percentage for mRNA of at least 85%. In embodiments, the lipid nanoparticles have an encapsulation percentage for mRNA of at least 90%. In embodiments, the lipid nanoparticles have an encapsulation percentage for mRNA of at least 95%. In embodiments, the encapsulation percentage is calculated by performing the Ribogreen assay (Invitrogen) with and without the presence of 0.1% Triton-X 100.
as §1
The RiboGreen Assay is a fluorescence-based method for the determination of mRNA concentration (Total and Free) and % encapsulation using Quant-iT™ RiboGreen® RNA reagent in mRNA containing lipid nanoparticles.
• To each of the standards (Blank, mRNA-1, mRNA-2. mRNA-3, mRNA-4, mRNA-5) and Samples (free mRNA and total mRNA), add 1.0 mL of 200-fold Ribogreen Reagent Solution and gently mix by inversion. This is a 2× Dilution. • Add 200 μL of each standard and sample in triplicate using the reverse pipetting technique in a 96-well Costar Black with Clear Background Plate. Ensure no bubbles are present in the plate before the fluorescence reading. • Read the fluorescence signal using the below instrument parameters: • Read Type: Fluorescence, Bottom Read • Excitation: 485 nm; Cut-off: 515 nm; Emission: 530 nm • Plate Type: 96-well Costar Black with Clear Background
The average fluorescence from each calibration standard is plotted against the concentration to generate a linear calibration curve using the MS Excel software. The coefficient of determination (R^2) of calibration curve must be R^2>0.99.
[formula] • Where, • Y=average fluorescence value • m: slope • x: concentration (pg/mL) • c: y-intercept • Using the linear equation, calculate the concentration of free and total mRNA concentration in the test sample by replacing the y value in the equation with the average fluorescence value of each respective sample • Once the concentration is determined, the actual concentration in the sample can be back-calculated by multiplying the concentration in the test sample with the dilution factor (DF) as follows:
[formula] [formula] • Concentration of encapsulated mRNA can be determined by subtracting the concentration of free mRNA from the total mRNA. • % Encapsulation can then be calculated by taking the ratio of encapsulated mRNA over total mRNA and multiplying the result with 100.

[5] = Table 2, isosorbide-derived lipids, mouse serum 6 hours post single IM injection of 0.1 μg hEPO mRNA LNP
[6] = Table 2, isosorbide-derived lipids

Row | Compound | hEPO 6 Hr (ng/mL) Mean ([1]; Table 3, isomannide-derived lipids, mouse serum 6 hours post single IM injection of 0.1 μg hEPO mRNA LNP) [ng/mL] | hEPO 24 Hr (ng/ml) Mean ([1]; Table 3, isomannide-derived lipids) [ng/mL] | HAI GMT [2] | Polydispersity Index (PDI) [3] | Size (nm) [3] [nm] | Encapsulation efficiency (EE) % [4] [%] | hEPO 6 Hr (ng/ml) Mean [1, 5] [ng/mL] | hEPO 24 Hr (ng/ml) Mean [1, 6] [ng/mL] | hEPO 6 Hr (ng/ml) Mean ([1]; Table 4, further lipids, mouse serum 6 hours post IM injection of hEPO mRNA LNP as in example 3) [ng/mL]
1 | CCCCCCCCCCC(O)CN(CCCC(=O)O[C@H]1CO[C@H]2[C@@H]1OC[C@H]2OC(=O)CCCN(CC(O)CCCCCCCCCC)CC(O)CCCCCCCCCC)CC(O)CCCCCCCCCC (stereo in doubt) [Compound 3] | 37.4 | 18.9 | 320 | 0.11 | 95 | 86 |  |  | 
2 | CCCCCCCCCCC(O)CN(CCCC(=O)O[C@H]1CO[C@H]2[C@@H]1OC[C@H]2OC(=O)CCCN(CC(O)CCCCCCCCCC)CC(O)CCCCCCCCCC)CC(O)CCCCCCCCCC (stereo partly drawn) [Compound 24] |  |  | 190 | 0.11 | 88 | 83 | 30.2 | 19.4 | 
3 | CCCCCCCCCCCCCCCCC(O)CN(CCCCC(=O)O[C@@H]1CO[C@H]2[C@@H]1OC[C@H]2OC(=O)CCCCN(CC(O)CCCCCCCCCCCCCCCC)CC(O)CCCCCCCCCCCCCCCC)CC(O)CCCCCCCCCCCCCCCC (stereo partly drawn) [Compound 31] |  |  |  | 0.12 | 98 | 97 | 14.1 |  | 
4 | CCCCCCCCCCC(O)CN(CCCOC(=O)O[C@@H]1CO[C@H]2[C@@H]1OC[C@H]2OC(=O)OCCCN(CC(O)CCCCCCCCCC)CC(O)CCCCCCCCCC)CC(O)CCCCCCCCCC (stereo partly drawn) [Compound 36] |  |  |  | 0.2 | 94 | 88 |  |  | 31.7
5 | CCCCCC/C=C\COC(=O)CCCCCC(O)CN(CCCC(=O)O[C@@H]1CO[C@H]2[C@@H]1OC[C@@H]2SC(=O)CCCN(CC(O)CCCCCCCCCC)CC(O)CCCCCCCCCC)CC(O)CCCCCC(=O)OC/C=C\CCCCCC (stereo partly drawn) [Compound 34] |  |  |  | 0.1 | 84 | 92 | 33.8 |  | 
6 | CCCCCCCCCCC(O)CN(CCCCC(=O)O[C@@H]1CO[C@H]2[C@@H]1OC[C@@H]2OC(=O)CCCN(CC(O)CCCCCCCCCC)CC(O)CCCCCCCCCC)CC(O)CCCCCCCCCC (stereo partly drawn) [Compound 25] |  |  |  | 0.13 | 81 | 96 | 42.7 |  | 
7 | CCCCCCCCCCC(O)CN(CCCOC(=O)O[C@H]1CO[C@H]2[C@@H]1OC[C@H]2OC(=O)OCCCN(CC(O)CCCCCCCCCC)CC(O)CCCCCCCCCC)CC(O)CCCCCCCCCC (stereo partly drawn) [Compound 40] |  |  |  | 0.11 | 84 | 66 | 11.9 | 7 | 

Source: US20260224486A1, “DIANHYDROHEXITOL BASED IONIZABLE LIPIDS FOR NUCLEIC ACID DELIVERY” (SANOFI PASTEUR INC., priority 2023, published 2026)
